Assay results from US11590139B2, “Substituted aminopurine compounds, compositions thereof, and methods of treatment therewith” (Signal Pharmaceuticals, LLC, priority 2014, dated 2023).

What follows are molecules tested on Lox-IMVI melanoma cell line (assay: Lox-IMVI anti-proliferative assay (growth inhibition, Cell Titer-Glo)). Conditions: Homo sapiens; IC50 activity level in the cell-based Lox-IMVI anti-proliferative assay; read-out: Activity.
Format: cell-based, human
Method in brief: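 First, compound was dispensed as a 10-point 3-fold series (0.5 nM–10 μM, duplicate). Then cells in RPMI + 10% FBS were added and grown 72 h at 37 °C with 0.2% DMSO. Finally, ATP luminescence was read and IC50 calculated versus DMSO control.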

IC50 | Compound
> 1000 nM | NC(=O)[C@H]1CC[C@@H](n2c(Nc3c(Cl)cc(Cl)cc3Cl)nc3cnc(NC4CCS(=O)(=O)CC4)nc32)CC1 [Example 92, (1s,4s)-4-(2-((1,1-dioxidotetrahydro-2H-thiopyran-4-yl)amino)-8-((2,4,6-trichlorophenyl)amino)-9H-purin-9-yl)cyclohexane-1-carboxamide]
500 to 1000 nM | NC(=O)[C@H]1CC[C@@H](n2c(Nc3c(F)cc(Cl)cc3Cl)nc3cnc(N[C@H]4C[C@H](O)C4)nc32)CC1 [Example 301, (1s,4s)-4-(8-(2,4-dichloro-6-fluorophenylamino)-2-((1r,3r)-3-hydroxycyclobutylamino)-9H-purin-9-yl)cyclohexanecarboxamide]
> 1000 nM | NC(=O)[C@H]1CC[C@@H](n2c(Nc3ccc(Cl)cc3Cl)nc3cnc(N[C@@H]4CCC[C@H]4O)nc32)CC1 [Example 261, (1S,4s)-4-(8-(2,4-dichlorophenylamino)-2-((1R,2R)-2-hydroxycyclopentylamino)-9H-purin-9-yl)cyclohexanecarboxamide]
> 1000 nM | C[C@@H]1CC[C@@H](Nc2ncc3nc(Nc4c(F)cc(Cl)cc4F)n([C@H]4CC[C@@H](C(N)=O)CC4)c3n2)C[C@H]1O [Example 356, (1S,4s)-4-(8-(4-chloro-2,6-difluorophenylamino)-2-((1R,3R,4R)-3-hydroxy-4-methylcyclohexylamino)-9H-purin-9-yl)cyclohexanecarboxamide]
> 1000 nM | CC[C@@H](CO)Nc1ncc2nc(Nc3c(F)cc(F)cc3Cl)n([C@H]3CC[C@@H](C(N)=O)CC3)c2n1 [Example 147, (1R,4s)-4-(8-(2-chloro-4,6-difluorophenylamino)-2-((S)-1-hydroxybutan-2-ylamino)-9H-purin-9-yl)cyclohexanecarboxamide]
500 to 1000 nM | NC(=O)[C@H]1CC[C@@H](n2c(Nc3c(F)cc(Cl)cc3F)nc3cnc(N[C@H]4CC[C@H](O)C4)nc32)CC1 [Example 329, (1R,4s)-4-(8-(4-chloro-2,6-difluorophenylamino)-2-((1S,3S)-3-hydroxycyclopentylamino)-9H-purin-9-yl)cyclohexanecarboxamide]
> 1000 nM | CC[C@@H](CO)Nc1ncc2nc(Nc3ccc(F)c(F)c3F)n([C@H]3CC[C@@H](C(N)=O)CC3)c2n1 [Example 151, (1R,4s)-4-(2-((S)-1-hydroxybutan-2-ylamino)-8-(2,3,4-trifluorophenylamino)-9H-purin-9-yl)cyclohexanecarboxamide]
> 1000 nM | NC(=O)[C@H]1CC[C@@H](n2c(Nc3c(F)ccc(Cl)c3F)nc3cnc(N[C@H]4COC[C@@H]4O)nc32)CC1 [Example 318, (1R,4s)-4-(8-(3-chloro-2,6-difluorophenylamino)-2-((3S,4R)-4-hydroxytetrahydrofuran-3-ylamino)-9H-purin-9-yl)cyclohexanecarboxamide]
> 1000 nM | NC(=O)[C@H]1CC[C@@H](n2c(Nc3ccc(F)c(F)c3F)nc3cnc(N[C@@H]4CCC[C@H]4O)nc32)CC1 [Example 264, (1S,4s)-4-(2-((1R,2R)-2-hydroxycyclopentylamino)-8-(2,3,4-trifluorophenylamino)-9H-purin-9-yl)cyclohexanecarboxamide]
> 1000 nM | CC1(C)CC[C@@H](Nc2ncc3nc(Nc4c(F)cc(F)cc4F)n([C@H]4CC[C@@H](C(N)=O)CC4)c3n2)C[C@H]1O [Example 381, (1S,4s)-4-(2-((1R,3R)-3-hydroxy-4,4-dimethylcyclohexylamino)-8-(2,4,6-trifluorophenylamino)-9H-purin-9-yl)cyclohexanecarboxamide]
> 1000 nM | NC(=O)[C@H]1CC[C@@H](n2c(Nc3c(F)cc(Cl)cc3Cl)nc3cnc(NC4COCC4O)nc32)CC1 (stereo partly shown) [Example 182, (1s,4s)-4-(8-(2,4-dichloro-6-fluorophenylamino)-2-(4-hydroxytetrahydrofuran-3-ylamino)-9H-purin-9-yl)cyclohexanecarboxamide]
250 to 500 nM | NC(=O)[C@H]1CC[C@@H](n2c(Nc3c(F)cc(Cl)cc3Cl)nc3cnc(NC4CC5(COC5)C4)nc32)CC1 [Example 195, (1s,4s)-4-(2-(2-oxaspiro[3.3]heptan-6-ylamino)-8-(2,4-dichloro-6-fluorophenylamino)-9H-purin-9-yl)cyclohexanecarboxamide]
> 1000 nM | NC(=O)[C@H]1CC[C@@H](n2c(Nc3cccc(Cl)c3Cl)nc3cnc(NC4CCOCC4)nc32)CC1 [Example 62, (1s,4s)-4-(8-(2,3-dichlorophenylamino)-2-(tetrahydro-2H-pyran-4-ylamino)-9H-purin-9-yl)cyclohexanecarboxamide]

Same assay, conditions: Homo sapiens; Lox-IMVI anti-proliferative assay, IC50 activity level; read-out: Activity

IC50 | Compound
500 to 1000 nM | NC(=O)[C@H]1CC[C@@H](n2c(Nc3c(F)cc(F)cc3F)nc3cnc(N[C@@H]4CCOC4)nc32)CC1 [Example 530, (1S,4s)-4-(2-((R)-tetrahydrofuran-3-ylamino)-8-(2,4,6-trifluorophenylamino)-9H-purin-9-yl)cyclohexanecarboxamide]
> 1000 nM | NC(=O)[C@H]1CC[C@@H](n2c(Nc3c(Cl)cc(F)cc3Cl)nc3cnc(NCC(F)(F)CO)nc32)CC1 [Example 452, (1s,4s)-4-(8-(2,6-dichloro-4-fluorophenylamino)-2-(2,2-difluoro-3-hydroxypropylamino)-9H-purin-9-yl)cyclohexanecarboxamide]
< 250 nM | C[C@]1(C(N)=O)CC[C@@H](n2c(Nc3c(F)cc(F)cc3Cl)nc3cnc(NC4CCCC4)nc32)CC1 [Example 558, (1s,4s)-4-(8-(2-chloro-4,6-difluorophenylamino)-2-(cyclopentylamino)-9H-purin-9-yl)-1-methylcyclohexanecarboxamide]
500 to 1000 nM | C[C@]1(C(N)=O)CC[C@H](n2c(Nc3c(Cl)cc(C#N)cc3Cl)nc3cnc(NC4CCCC4)nc32)CC1 [Example 485, (1r,4r)-4-(2-(cyclopentylamino)-8-(2,6-dichloro-4-cyanophenylamino)-9H-purin-9-yl)-1-methylcyclohexanecarboxamide]
> 1000 nM | NC(=O)[C@H]1CC[C@@H](n2c(Nc3c(F)cc(Cl)cc3F)nc3cnc(N[C@H]4CCCC[C@H]4O)nc32)CC1 [Example 515, (1R,4s)-4-(8-(4-chloro-2,6-difluorophenylamino)-2-((1S,2R)-2-hydroxycyclohexylamino)-9H-purin-9-yl)cyclohexanecarboxamide]
> 1000 nM | N#Cc1cc(Cl)c(Nc2nc3cnc(N[C@H]4CCCC[C@H](O)C4)nc3n2[C@H]2CC[C@@H](C(N)=O)CC2)c(Cl)c1 [Example 449, (1R,4s)-4-(8-(2,6-dichloro-4-cyanophenylamino)-2-((1S,3S)-3-hydroxycycloheptylamino)-9H-purin-9-yl)cyclohexanecarboxamide]
250 to 500 nM | C[C@]1(C(N)=O)CC[C@@H](n2c(Nc3c(F)cc(F)cc3Cl)nc3cnc(N[C@@H]4CCC[C@H](O)C4)nc32)CC1 [Example 576, (1S,4s)-4-(8-(2-chloro-4,6-difluorophenylamino)-2-((1R,3S)-3-hydroxycyclohexylamino)-9H-purin-9-yl)-1-methylcyclohexanecarboxamide]
250 to 500 nM | C[C@H]1COCC[C@@H]1Nc1ncc2nc(Nc3c(Cl)cc(C#N)cc3Cl)n([C@H]3CC[C@@H](C(N)=O)CC3)c2n1 [Example 496, (1R,4s)-4-(8-(2,6-dichloro-4-cyanophenylamino)-2-((3R,4S)-3-methyltetrahydro-2H-pyran-4-ylamino)-9H-purin-9-yl)cyclohexanecarboxamide]
< 250 nM | C[C@@H]1COCC[C@H]1Nc1ncc2nc(Nc3c(Cl)cc(Cl)cc3Cl)n([C@H]3CC[C@@H](C(N)=O)CC3)c2n1 [Example 499, (1S,4s)-4-(2-((3S,4R)-3-methyltetrahydro-2H-pyran-4-ylamino)-8-(2,4,6-trichlorophenylamino)-9H-purin-9-yl)cyclohexanecarboxamide]
< 250 nM | C[C@]1(C(N)=O)CC[C@@H](n2c(Nc3c(F)cc(Cl)cc3Cl)nc3cnc(N[C@@H]4CCC[C@H](O)C4)nc32)CC1 [Example 564, (1S,4s)-4-(8-(2,4-dichloro-6-fluorophenylamino)-2-((1R,3S)-3-hydroxycyclohexylamino)-9H-purin-9-yl)-1-methylcyclohexanecarboxamide]
250 to 500 nM | NC(=O)[C@H]1CC[C@@H](n2c(Nc3c(F)cc(Cl)cc3Cl)nc3cnc(N[C@H]4CCC(F)(F)C4)nc32)CC1 [Example 591, (1R,4s)-4-(8-(2,4-dichloro-6-fluorophenylamino)-2-((S)-3,3-difluorocyclopentylamino)-9H-purin-9-yl)cyclohexanecarboxamide]
> 1000 nM | NC(=O)[C@H]1CC[C@@H](n2c(Nc3c(F)cc(Cl)cc3Cl)nc3cnc(N[C@H](CO)C(F)(F)F)nc32)CC1 [Example 471, (1S,4s)-4-(8-(2,4-dichloro-6-fluorophenylamino)-2-((R)-1,1,1-trifluoro-3-hydroxypropan-2-ylamino)-9H-purin-9-yl)cyclohexanecarboxamide]

Same assay, conditions: Homo sapiens; Lox-IMVI melanoma cell line, anti-proliferative assay; read-out: Activity (IC50 activity level)

IC50 | Compound
> 1000 nM | NC(=O)[C@H]1CC[C@@H](n2c(Nc3c(Cl)cc(F)cc3Cl)nc3cnc(N[C@@H]4CCCN(C(=O)Nc5ccccc5)C4)nc32)CC1 [Example 784, (R)-3-(9-((1s,4S)-4-carbamoylcyclohexyl)-8-(2,6-dichloro-4-fluorophenylamino)-9H-purin-2-ylamino)-N-phenylpiperidine-1-carboxamide]
> 1000 nM | NC(=O)[C@H]1CC[C@@H](n2c(Nc3c(Cl)cc(F)cc3Cl)nc3cnc(NC4CCC(c5ncno5)CC4)nc32)CC1 (stereo partly shown) [Example 679, (1s,4s)-4-(2-(4-(1,2,4-oxadiazol-5-yl)cyclohexylamino)-8-(2,6-dichloro-4-fluorophenylamino)-9H-purin-9-yl)cyclohexanecarboxamide]
> 1000 nM | Cc1ccc(S(=O)(=O)N2CCC[C@@H](Nc3ncc4nc(Nc5c(Cl)cc(F)cc5Cl)n([C@H]5CC[C@@H](C(N)=O)CC5)c4n3)C2)cc1 [Example 794, (1S,4s)-4-(8-(2,6-dichloro-4-fluorophenylamino)-2-((R)-1-tosylpiperidin-3-ylamino)-9H-purin-9-yl)cyclohexanecarboxamide]
